From patent US20220125765A1, “PHARMACEUTICAL COMBINATIONS COMPRISING MEBENDAZOLE AND A STRONG OR MODERATE CYP1A2 INHIBITOR” (ZEPHAPHARM LTD, priority 2019, published 2022)
Where two headings read alike, the source gives them in different places.

Experiments:
[1] = target: CYP2C9 (Homo sapiens, UniProt P11712); assay: Cytochrome P450 reaction phenotyping, recombinant CYP2C9 (Bactosomes)
Experimental: Incubations were also performed using control Bactosomes™ (no P450 enzymes present) to reveal any non-enzymatic degradation. Control compounds known to be metabolised specifically by each P450 isoform were included. All incubations were performed singularly for each test compound.
Incubations were also performed using control Bactosomes™ (no P450 enzymes present) to reveal any non-enzymatic degradation. Control compounds known to be metabolised specifically by each P450 isoform were included. All incubations were performed singularly for each test compound. […] The reactions were stopped by transferring an aliquot of incubate to quench solvent at the appropriate time points, in a 1:3 ratio. The termination plates were centrifuged at 3,000 rpm for 20 min at 4° C. to precipitate the protein.

[2] = tested on: NBXF SK-N-AS; assay: 2D monolayer CellTiter-Blue viability, neuroblastoma SK-N-AS; type: cell-based; settings: 72 h
Experimental: (§1) Seventeen compounds, including mebendazole (Batch no. […] Efficacy of compounds was assessed using CellTiter-Blue® Cell Viability Assay. Anti-tumor activity is expressed as absolute and relative IC50 and IC70 values, calculated by non-linear regression analysis.

[3] = tested on: SXFO Saos-2; assay: 2D monolayer CellTiter-Blue viability, osteosarcoma Saos-2; type: cell-based; settings: 72 h
Experimental: as §1

[4] = tested on: SXFS Hs 729; assay: 2D monolayer CellTiter-Blue viability, soft tissue sarcoma Hs 729; type: cell-based; settings: 72 h
Experimental: as §1

[5] = tested on: SXFS SK-LMS-1; assay: 2D monolayer CellTiter-Blue viability, soft tissue sarcoma SK-LMS-1; type: cell-based; settings: 72 h
Experimental: as §1

[6] = tested on: 6 ovarian cancer (OVXF) and 6 renal cancer (RXF) cell lines; assay: 2D monolayer CellTiter-Blue viability, panel geometric mean (Example 10); type: cell-based; settings: 12 cell lines, 72 h
Experimental: (§2) Mebendazole was tested in vitro across a panel of 12 tumor cell lines of ovarian and renal cancer by using a 2D monolayer assay. […] OVXF 899L and RXF 486L are P-gp expressing, multidrug resistant cell lines.
(§3) Anti-tumor activity is expressed as absolute and relative IC50/70 values, calculated by 4-parameter non-linear curve fit.

[7] = tested on: SK-OV-3; assay: 2D monolayer CellTiter-Blue viability, ovarian cancer SK-OV-3; type: cell-based; settings: for IC50: Homo sapiens; for Test/Control (%) at Drug Concentration: 72 h
Experimental: as §2, §3

[8] = tested on: RXF 1220L; assay: 2D monolayer CellTiter-Blue viability, renal cancer RXF 1220L; type: cell-based; settings: for Test/Control (%) at Drug Concentration: 72 h
Experimental: as §2, §3

[9] = tested on: RXF 2282L; assay: 2D monolayer CellTiter-Blue viability, renal cancer RXF 2282L; type: cell-based; settings: for Test/Control (%) at Drug Concentration: 72 h
Experimental: as §2, §3

[10] = in vitro; settings: human, cryopreserved hepatocytes (suspension)
Experimental: The amount of test compound remaining at each time point was analysed by LC-MS/MS. Appropriate control compounds were also incubated.
The final incubation volume was 500 μL. Appropriate control compounds were included, alongside appropriate vehicle control.
The reactions were stopped by transferring 50 μL of incubate to 100 μL acetonitrile containing internal standard at the appropriate time points (0, 5, 10, 20, 40 and 60 min). The termination plates were centrifuged at 2500 rpm at 4° C. for 30 min to precipitate the protein.

CYP2C9, sequence (P11712 whole entry, canonical isoform): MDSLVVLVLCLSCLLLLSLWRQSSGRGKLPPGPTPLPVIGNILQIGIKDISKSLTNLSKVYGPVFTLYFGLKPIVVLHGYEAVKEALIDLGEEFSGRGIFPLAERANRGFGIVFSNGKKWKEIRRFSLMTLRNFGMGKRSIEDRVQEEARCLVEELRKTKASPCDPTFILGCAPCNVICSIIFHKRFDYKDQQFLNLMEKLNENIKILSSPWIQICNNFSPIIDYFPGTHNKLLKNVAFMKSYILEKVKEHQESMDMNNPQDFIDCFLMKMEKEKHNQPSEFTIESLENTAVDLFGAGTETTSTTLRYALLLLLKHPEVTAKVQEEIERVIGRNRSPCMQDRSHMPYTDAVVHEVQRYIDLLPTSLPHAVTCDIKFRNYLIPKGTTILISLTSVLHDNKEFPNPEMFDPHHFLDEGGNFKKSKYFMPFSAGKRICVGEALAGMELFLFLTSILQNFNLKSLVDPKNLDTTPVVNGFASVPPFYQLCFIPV

COC(=O)Nc1nc2ccc(C(=O)c3ccccc3)cc2[nH]1 [Mebendazole, methyl N-(6-benzoyl-1H-benzimidazol-2-yl)carbamate]
Compound Remaining (% of 0 min) ([1]; CYP2C9, 5 μM, 0 min): 100 % of 0 min
Compound Remaining (% of 0 min) ([1]; CYP2C9, 5 μM, 5 min): 108 % of 0 min
Compound Remaining (% of 0 min) ([1]; CYP2C9, 5 μM, 15 min): 108 % of 0 min
Compound Remaining (% of 0 min) ([1]; CYP2C9, 5 μM, 30 min): 109 % of 0 min
Compound Remaining (% of 0 min) ([1]; CYP2C9, 5 μM, 45 min): 105 % of 0 min
% compound remaining ([1]; CYP2C9, 5 μM, time not stated): > 87.5%
t1/2 ([1]; CYP2C9, substrate 5 μM): >2.25 h
half-life at 5 μM ([1]; human, recombinant CYP2C9 (Bactosomes), pH 7.4): > 2.25 h
Test/Control (%) at Drug Concentration ([2]; 1.0E+00 μM): 31%
Test/Control (%) at Drug Concentration ([2]; 1.0E+01 μM): 21%
Test/Control (%) at Drug Concentration ([2]; 1.0E+02 μM): 8%
Test/Control (%) at Drug Concentration ([2]; 1.0E−01 μM): 62%
Test/Control (%) at Drug Concentration ([2]; 1.0E−02 μM): 91%
Test/Control (%) at Drug Concentration ([2]; 3.2E+00 μM): 28%
Test/Control (%) at Drug Concentration ([2]; 3.2E+01 μM): 19%
Test/Control (%) at Drug Concentration ([2]; 3.2E−01 μM): 36%
Test/Control (%) at Drug Concentration ([2]; 3.2E−02 μM): 84%
Test/Control (%) at Drug Concentration ([2]; 3.2E−03 μM): 89%
Test/Control (%) at Drug Concentration ([3]; Saos-2, 1.0E+00 μM): 19%
Test/Control (%) at Drug Concentration ([3]; Saos-2, 1.0E+01 μM): 11%
Test/Control (%) at Drug Concentration ([3]; Saos-2, 1.0E+02 μM): 6%
Test/Control (%) at Drug Concentration ([3]; Saos-2, 1.0E−01 μM): 73%
Test/Control (%) at Drug Concentration ([3]; Saos-2, 1.0E−02 μM): 74%
Test/Control (%) at Drug Concentration ([3]; Saos-2, 3.2E+00 μM): 20%
Test/Control (%) at Drug Concentration ([3]; Saos-2, 3.2E+01 μM): 12%
Test/Control (%) at Drug Concentration ([3]; Saos-2, 3.2E−01 μM): 29%
Test/Control (%) at Drug Concentration ([3]; Saos-2, 3.2E−02 μM): 73%
Test/Control (%) at Drug Concentration ([3]; Saos-2, 3.2E−03 μM): 77%
Test/Control (%) at Drug Concentration ([4]; Hs 729, 1.0E+00 μM): 65%
Test/Control (%) at Drug Concentration ([4]; Hs 729, 1.0E+01 μM): 44%
Test/Control (%) at Drug Concentration ([4]; Hs 729, 1.0E+02 μM): 12%
Test/Control (%) at Drug Concentration ([4]; Hs 729, 1.0E−01 μM): 90%
Test/Control (%) at Drug Concentration ([4]; Hs 729, 1.0E−02 μM): 91%
Test/Control (%) at Drug Concentration ([4]; Hs 729, 3.2E+00 μM): 56%
Test/Control (%) at Drug Concentration ([4]; Hs 729, 3.2E+01 μM): 35%
Test/Control (%) at Drug Concentration ([4]; Hs 729, 3.2E−01 μM): 84%
Test/Control (%) at Drug Concentration ([4]; Hs 729, 3.2E−02 μM): 89%
Test/Control (%) at Drug Concentration ([4]; Hs 729, 3.2E−03 μM): 93%
Test/Control (%) at Drug Concentration ([5]; SK-LMS-1, 1.0E+00 μM): 27%
Test/Control (%) at Drug Concentration ([5]; SK-LMS-1, 1.0E+01 μM): 9%
Test/Control (%) at Drug Concentration ([5]; SK-LMS-1, 1.0E+02 μM): 3%
Test/Control (%) at Drug Concentration ([5]; SK-LMS-1, 1.0E−01 μM): 80%
Test/Control (%) at Drug Concentration ([5]; SK-LMS-1, 1.0E−02 μM): 90%
Test/Control (%) at Drug Concentration ([5]; SK-LMS-1, 3.2E+00 μM): 16%
Test/Control (%) at Drug Concentration ([5]; SK-LMS-1, 3.2E+01 μM): 5%
Test/Control (%) at Drug Concentration ([5]; SK-LMS-1, 3.2E−01 μM): 45%
Test/Control (%) at Drug Concentration ([5]; SK-LMS-1, 3.2E−02 μM): 83%
Test/Control (%) at Drug Concentration ([5]; SK-LMS-1, 3.2E−03 μM): 101%
Geometric mean Abs. IC70 [6]: 1.515 µM
Geometric mean Rel. IC70 [6]: 0.801 µM
IC50 ([6]; read-out: Geometric mean Abs. IC50): 0.941 µM
IC50 ([6]; read-out: Geometric mean Rel. IC50): 0.587 µM
IC50 ([7]; SK-OV-3, 72 h, read-out: Abs. IC50): 1.2 µM
IC50 ([7]; SK-OV-3, 72 h, read-out: Rel. IC50): 0.476 µM
Test/Control (%) at Drug Concentration ([7]; SK-OV-3, 1.0E+00 μM): 52%
Test/Control (%) at Drug Concentration ([7]; SK-OV-3, 1.0E−01 μM): 99%
Test/Control (%) at Drug Concentration ([7]; SK-OV-3, 1.0E−02 μM): 98%
Test/Control (%) at Drug Concentration ([7]; SK-OV-3, 1.0E−03 μM): 100%
Test/Control (%) at Drug Concentration ([7]; SK-OV-3, 1.0E−04 μM): 94%
Test/Control (%) at Drug Concentration ([7]; SK-OV-3, 3.2E+00 μM): 45%
Test/Control (%) at Drug Concentration ([7]; SK-OV-3, 3.2E−01 μM): 84%
Test/Control (%) at Drug Concentration ([7]; SK-OV-3, 3.2E−02 μM): 102%
Test/Control (%) at Drug Concentration ([7]; SK-OV-3, 3.2E−03 μM): 101%
Test/Control (%) at Drug Concentration ([7]; SK-OV-3, 3.2E−04 μM): 104%
Abs. IC70 ([7]; SK-OV-3, 72 h): >3.200 µM
Rel. IC70 ([7]; SK-OV-3, 72 h): 0.679 µM
Bot. (%) ([7]; SK-OV-3, 72 h, curve fit): 44%
Top (%) ([7]; SK-OV-3, 72 h, curve fit): 100%
Test/Control (%) at Drug Concentration ([8]; RXF 1220, 1.0E+00 μM): 70%
Test/Control (%) at Drug Concentration ([8]; RXF 1220, 1.0E−01 μM): 99%
Test/Control (%) at Drug Concentration ([8]; RXF 1220, 1.0E−02 μM): 113%
Test/Control (%) at Drug Concentration ([8]; RXF 1220, 1.0E−03 μM): 98%
Test/Control (%) at Drug Concentration ([8]; RXF 1220, 1.0E−04 μM): 99%
Test/Control (%) at Drug Concentration ([8]; RXF 1220, 3.2E+00 μM): 61%
Test/Control (%) at Drug Concentration ([8]; RXF 1220, 3.2E−01 μM): 83%
Test/Control (%) at Drug Concentration ([8]; RXF 1220, 3.2E−02 μM): 99%
Test/Control (%) at Drug Concentration ([8]; RXF 1220, 3.2E−03 μM): 106%
Test/Control (%) at Drug Concentration ([8]; RXF 1220, 3.2E−04 μM): 102%
Abs. IC70 ([8]; RXF 1220, 72 h): >3.200 µM
Rel. IC70 ([8]; RXF 1220, 72 h): 0.751 µM
Bot. (%) ([8]; RXF 1220, 72 h, curve fit): 59%
Top (%) ([8]; RXF 1220, 72 h, curve fit): 103%
IC50 ([8]; RXF 1220, 72 h, read-out: Abs. IC50): > 3.2 µM
IC50 ([8]; RXF 1220, 72 h, read-out: Rel. IC50): 0.398 µM
Test/Control (%) at Drug Concentration ([9]; RXF 2282, 1.0E+00 μM): 71%
Test/Control (%) at Drug Concentration ([9]; RXF 2282, 1.0E−01 μM): 83%
Test/Control (%) at Drug Concentration ([9]; RXF 2282, 1.0E−02 μM): 84%
Test/Control (%) at Drug Concentration ([9]; RXF 2282, 1.0E−03 μM): 88%
Test/Control (%) at Drug Concentration ([9]; RXF 2282, 1.0E−04 μM): 108%
Test/Control (%) at Drug Concentration ([9]; RXF 2282, 3.2E+00 μM): 57%
Test/Control (%) at Drug Concentration ([9]; RXF 2282, 3.2E−01 μM): 77%
Test/Control (%) at Drug Concentration ([9]; RXF 2282, 3.2E−02 μM): 86%
Test/Control (%) at Drug Concentration ([9]; RXF 2282, 3.2E−03 μM): 89%
Test/Control (%) at Drug Concentration ([9]; RXF 2282, 3.2E−04 μM): 92%
Abs. IC70 ([9]; RXF 2282, 72 h): >3.200 µM
Rel. IC70 ([9]; RXF 2282, 72 h): >3.200 µM
Bot. (%) ([9]; RXF 2282, 72 h, curve fit): 0%
Top (%) ([9]; RXF 2282, 72 h, curve fit): 102%
IC50 ([9]; RXF 2282, 72 h, read-out: Abs. IC50): > 3.2 µM
IC50 ([9]; RXF 2282, 72 h, read-out: Rel. IC50): > 3.2 µM
half-life at 1 μM [10]: 1.52 h
hepatocyte CLint at 1 µM [10]: 15.2 µL/min/1e6 cells
half-life at 1 μM ([10]; with fluvoxamine 10 μM): 30.7 h
hepatocyte CLint at 1 µM ([10]; with fluvoxamine 10 μM): 0.751 µL/min/1e6 cells
half-life at 1 μM ([10]; with fluvoxamine 300 μM): 3.75 h
hepatocyte CLint at 1 µM ([10]; with fluvoxamine 300 μM): 6.16 ± 1.7 µL/min/1e6 cells
half-life at 1 μM ([10]; with mexiletine 10 μM): 2.27 h
half-life at 1 μM ([10]; with mexiletine 30 μM): 11.9 h
half-life at 1 μM ([10]; with mexiletine 100 μM): 5.28 h
half-life at 1 μM ([10]; with mexiletine 300 μM): 11.1 h
hepatocyte CLint at 1 µM ([10]; with mexiletine 300 μM): 2.08 ± 1.8 µL/min/1e6 cells
